From publication PMC12169680, “Design and Mechanistic Analysis of a Potent Bivalent Inhibitor of Transthyretin Amyloid Fibrillogenesis” (Journal of Medicinal Chemistry, 2025)

Legend:
[1] = target: T1, wild-type TTR in normal human plasma (Homo sapiens, UniProt P02766); assay: Displacement of 125I-T4 from TTR in normal human plasma; assay type: binding
T1 construct: TTR in whole plasma, from individuals homozygous for wild-type TTR; from tissue; host or cells: whole human plasma from individuals homozygous for wild-type TTR

[2] = target: T2, V122I TTR (Homo sapiens, UniProt P02766, V142I); assay: Inhibition of mechano-enzymatic fibrillogenesis (ThT); assay type: biochemical
T2 construct: 1-127; His6 (N); TEV cleavage site (N); made in house; host or cells: E. coli BL21 (DE3)
Description: To test their potency as inhibitors of TTR fibril formation, the 15 ligands were evaluated for their ability to inhibit the mechano-enzymatic mechanism of fibrillogenesis of V122I TTR, which is one of the most common amyloidogenic variants, , causing a disease with severity intermediate between the wild-type and other rare, more aggressive types of amyloidosis. […] Biochemical activity of ligands together with their physicochemical properties (i.e., cLogD, TPSA) were taken into consideration and B26 was finally selected as the most promising lead for further studies (Figure A). […] Prototype mds84 was also included for comparison. […] Although higher molar ratios of the monovalent ligands did inhibit fibrillogenesis, this cannot be replicated in vivo because the negative cooperativity of TTR cannot be overcome at feasible drug dosage. ,
Recombinant V122I TTR at 0.5 mg/mL (9 μM) in PBS, pH 7.4 was preincubated (37 °C for 30 min) with an equimolar concentration of ligand (or DMSO alone) before adding trypsin (5 ng/μL). Protein fibrillogenesis was carried out in glass vials stirred at 1400 rpm (IKA magnetic stirrer), 37 °C and spectrophotometric turbidity at 400 nm was used to monitor fibril formation over time until it reached a plateau at 96 h.
Analysis of amyloid material harvested from each sample at the end of the fibrillogenesis was carried out using Thioflavin T (ThT) emission fluorescence and Congo red staining. For these analyses, samples were centrifuged 20 min at 11,600g and pellets were thoroughly rinsed with PBS to remove nonbound ligand, resuspended with 100 μL PBS, pH 7.4, containing 10 μM Thioflavin T (ThT) in Costar 96-well black-wall plates. Bottom fluorescence values (excitation 440 nm, emission 480 nm) were recorded using a BMG LABTECH FLUostar Omega plate reader. Each value was normalized to the ThT signal of the TTR sample without ligand.

[3] = target: T3, recombinant wild-type TTR (Homo sapiens, UniProt P02766); assay: Stopped flow kinetics of ligand binding by fluorescence emission; settings: for rate constant k of TTR intrinsic fluorescence quenching / very early change in TTR fluorescence during dead time: 1 μM TTR; for rate constant k of TTR intrinsic fluorescence quenching: 1 μM ligand, 37 °C, PBS pH 7.4, first second; for very early change in TTR fluorescence during dead time: dead time <5 ms, equimolar ligand
T3 construct: Native TTR is a noncovalent homotetramer of β-sheet-rich 127-residue protomers; His6 (N); TEV cleavage site (N); made in house; host or cells: E. coli BL21 (DE3)
Description: Interaction of ligands in the TTR thyroxine binding pockets induces quenching of intrinsic fluorescence emission.
Kinetics of binding within the first second of reaction was evaluated with an SFM 3000 stopped flow device coupled to a MOS500 spectrometer with a fluorescence detection system (Bio Logic, Claix, France) and a cell path length of 1.5 mm (dead-time <5 ms). Total fluorescence emission over 325 nm, using a cut off filter, was monitored after excitation at 280 nm at 37 °C and 1 μM recombinant wild-type TTR in the presence of 1 μM of ligand in PBS pH 7.4 at a final concentration of 0.9% DMSO. Kinetic data were acquired as the average of at least 3 experimental mixings and fitted using the following equation y(t)=q+Aexp(−kt) where y(t) is the observed fluorescence q the offset of the baseline. A and k are, respectively, amplitude and rate constant of the observed fluorescence change.

[4] = target: T4, TTR (Homo sapiens, UniProt P02766); assay: NMR saturation transfer difference (STD) experiments to estimate k off; assay type: binding; settings: no STD signal observed by increasing the saturation time
T4 construct: Native TTR is a noncovalent homotetramer of β-sheet-rich 127-residue protomers; His6 (N); TEV cleavage site (N); made in house; host or cells: E. coli BL21 (DE3)
Text: However, the prototype mds84 was unsuitable for drug development due to its large and highly hydrophobic structure. The bivalent compound B26 represents the evolution of such TTR ligands. Compared to the palindromic prototype, the molecule has reduced size and reduced lipophilicity as a consequence of the removal of one of the aryl rings from headgroup B; introduction of an oxygen in the six-atom linker; replacement of the benzoyl group in headgroup A with 4-carboxy pyridine. Despite these structural changes, the ligand retains the same pseudoirreversible binding of mds84. […] Therefore, the B26 ligand overcomes the pharmaceutical limitations of negative cooperativity and, at the same time, retains the biomolecular property of very strong inhibition of TTR fibrillogenesis by simultaneously occupying the two ligand binding sites. Each of them is able to accommodate two aryl rings, and the one that penetrates deeper into the cavity is anchored to the protein by two halogen substituents. We have designed a bivalent molecule in which one-half has the properties of a classical analogue of the thyroid hormone, and the second half, connected through a chemical linker, is represented by only one aryl ring with halogen substituents.

[5] = target: T2, V122I TTR; assay: Electrophoretic analysis of V122I TTR proteolysis before and after mechano-enzymatic aggregation; assay type: biochemical; settings: SDS-PAGE, trypsin, 96 h aggregation
Description: Figure S2. Effect of B26 on proteolysis of V122I TTR. Homogenous SDS-12% PAGE under reducing conditions of 9 µM V122I TTR before (a) and after 96 h aggregation in the presence of 0 (b), 4.5 µM (c), 9 (d), 18 (e) and 36 µM (f) of B26 respectively in PBS pH 7.4 at 37°C. Aggregation was carried out under fluid agitation and addition of trypsin at an enzyme: substrate ratio of 1:200. LMW marker […]

[6] = Rat pharmacokinetics; assay type: in vivo; settings: data not shown
[7] = residual V122I TTR fibrillar aggregation with equimolar ligand, ThT emission normalized to protein without ligand, mean ± SD
[8] = supplementary CSV, residual V122I TTR aggregation, equimolar ligand

Compound | binding to TTR in plasma, in words ([1]; normal human plasma) | antifibrillogenic activity, in words ([2]; V122I TTR, equimolar ligand) | Agg (%) [2, 7] | Agg (%) [2, 8] | rate constant k of TTR intrinsic fluorescence quenching [3] | very early change in TTR fluorescence during dead time [3] | quenching reaction / penetrance faster than mds84 ([3]; ratio of rate constants) | quenching reaction slower than tafamidis ([3]; ratio of rate constants) | reduction of TTR intrinsic fluorescence ([3]; within the first second, equimolar protein and ligand) | k off [4] | effect on proteolysis of V122I TTR [5] | IC50 ([1]; capacity to displace 125I-T4 from TTR in human plasma) | rat pharmacokinetics compared with mds84 [6] | IC50 ([1]; ligand concentration reducing binding of 125I-thyroxine by wild-type TTR by 50% in normal human plasma, mean ± SD) | inhibition of V122I TTR amyloid formation at equimolar ligand/protein, in words ([2]; 9 μM V122I TTR, equimolar concentration, bivalent vs monovalent ligands)
O=C(O)CCc1cc(Cl)c(OCCCOCCOc2c(Cl)cc(Nc3cnccc3C(=O)O)cc2Cl)c(Cl)c1 [B26, 3-[4-[2-[3-[4-(2-Carboxyethyl)-2,6-dichloro-phenoxy]-propoxy]-ethoxy]-3,5-dichloro-anilino]-Pyridine-4-Carboxylic Acid] | preservation of the properties | excellent antifibrillogenic activity | 4.2 ± 1.9% | 4.2±1.9% | 22 ± 0.55 s^–1 | approximately 8% | 5 fold | at least 2 fold | ~30% | very slow | inhibited proteolysis |  |  |  | 
O=C(O)CCc1cc(Cl)c(OCCCCCCCOc2c(Cl)cc(Nc3ccccc3C(=O)O)cc2Cl)c(Cl)c1 [compound 1] |  |  |  |  |  |  |  |  |  |  |  | 2 ± 0.2 µM | much improved |  | 
O=C(O)c1ccccc1Nc1cc(Cl)c(OCCCCCCCOc2c(Cl)cc(Nc3ccccc3C(=O)O)cc2Cl)c(Cl)c1 [mds84, reference compound] |  |  | 2.4 ± 0.30% | 2.4±0.30% | 4.4 ± 0.44 s^–1 | 3% |  |  |  |  |  |  |  | 19 ± 5.8 µM | 
O=C(O)c1ccc2nc(-c3cc(Cl)cc(Cl)c3)oc2c1 [tafamidis, reference compound] |  |  |  |  | 49 ± 0.0016 s^–1 | approximately 8% |  |  |  |  |  |  |  |  | significantly lower inhibitory effect
